Laboratory results from patent publication US9695154B2, “Heteroaryl inhibitors of sumo activating enzyme” (MILLENNIUM PHARMACEUTICALS, INC., priority 2013, dated 2017).

Target: T1, recombinant human SAE enzyme (Homo sapiens, UniProt Q9UBT2)
T1 sequence (Q9UBT2 1-640): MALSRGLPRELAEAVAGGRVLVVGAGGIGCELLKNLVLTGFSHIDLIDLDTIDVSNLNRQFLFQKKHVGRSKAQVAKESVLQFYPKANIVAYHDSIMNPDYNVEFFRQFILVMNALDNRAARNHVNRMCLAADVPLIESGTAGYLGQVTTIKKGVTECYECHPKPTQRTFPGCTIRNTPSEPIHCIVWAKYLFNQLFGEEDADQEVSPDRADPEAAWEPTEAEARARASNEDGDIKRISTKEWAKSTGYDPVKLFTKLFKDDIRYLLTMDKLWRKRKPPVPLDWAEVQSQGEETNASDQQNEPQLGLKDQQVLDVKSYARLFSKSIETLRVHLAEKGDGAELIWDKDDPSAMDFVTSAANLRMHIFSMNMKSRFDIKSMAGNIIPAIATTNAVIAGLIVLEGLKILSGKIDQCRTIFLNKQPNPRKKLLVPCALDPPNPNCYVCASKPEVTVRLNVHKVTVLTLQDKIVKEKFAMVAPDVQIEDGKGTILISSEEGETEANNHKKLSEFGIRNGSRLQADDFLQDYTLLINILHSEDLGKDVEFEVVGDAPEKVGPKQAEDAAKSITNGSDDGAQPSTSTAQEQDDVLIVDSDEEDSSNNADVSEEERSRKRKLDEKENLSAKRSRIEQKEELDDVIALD
T1 sequence (Q9UBE0 1-346 partner): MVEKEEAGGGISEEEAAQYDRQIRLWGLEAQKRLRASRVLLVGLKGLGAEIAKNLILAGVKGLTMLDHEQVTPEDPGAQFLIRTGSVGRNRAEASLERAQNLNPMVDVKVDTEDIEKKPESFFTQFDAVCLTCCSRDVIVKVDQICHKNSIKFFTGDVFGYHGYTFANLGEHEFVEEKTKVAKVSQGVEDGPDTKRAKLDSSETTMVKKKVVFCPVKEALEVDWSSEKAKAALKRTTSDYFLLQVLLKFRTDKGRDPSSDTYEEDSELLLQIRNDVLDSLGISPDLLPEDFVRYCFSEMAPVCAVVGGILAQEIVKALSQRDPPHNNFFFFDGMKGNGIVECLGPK
Experiment: SAE HTRF Enzyme Assay
Assay type: biochemical
Conditions: for IC50: class symbols A-C; for inhibition at 0.111 µM: compound concentration 0.111 μM, read-out: Percent Inhibition
Outline: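 Measured as FRET after a 2 h antibody step: SAE (0.11 nM) thioester transfer of Sumo-Flag to Ubc9-GST, 0.5 μM ATP, 24° C for 105 min, quenched with 20 mM EDTA. Output is IC50 or percent inhibition at a single concentration.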

## CN(c1ncncc1C(=O)c1ccn(Cc2cccc(Br)c2)n1)[C@@H]1C[C@H](COS(N)(=O)=O)[C@@H](O)C1 [Compound I-157, {(1R,2S,4R)-4-[(5-{[1-(3-Bromobenzyl)-1H-pyrazol-3-yl]carbonyl}pyrimidin-4-yl)(methyl)amino]-2-hydroxycyclopentyl}methyl sulfamate]
  IC50: 10 to 100 nM
  inhibition at 0.111 µM: 67%

## NS(=O)(=O)OC[C@H]1C[C@@H](Nc2ncncc2C(=O)c2ccn(Cc3ccccc3)n2)C[C@@H]1O [Compound I-158, [(1R,2S,4R)-4-({5-[(1-Benzyl-1H-pyrazol-3-yl)carbonyl]pyrimidin-4-yl}amino)-2-hydroxycyclopentyl]methyl sulfamate]
  IC50: < 10 nM
  inhibition at 0.111 µM: 95%

## NS(=O)(=O)OC[C@H]1C[C@@H](Nc2ncncc2C(=O)c2ccn(Cc3ccc(Cl)c(Cl)c3)n2)[C@H](O)[C@@H]1O [Compound I-159, {(1R,2R,3S,4R)-4-[(5-{[1-(3,4-dichlorobenzyl)-1H-pyrazol-3-yl]carbonyl}pyrimidin-4-yl)amino]-2,3-dihydroxycyclopentyl}methyl sulfamate]
  IC50: < 10 nM
  inhibition at 0.111 µM: 96%

## NS(=O)(=O)OC[C@H]1C[C@@H](Nc2ncncc2C(=O)c2ccn(Cc3ccncc3)n2)[C@H](O)[C@@H]1O [Compound I-160, {(1R,2R,3S,4R)-2,3-dihydroxy-4-[(5-{[1-(pyridin-4-ylmethyl)-1H-pyrazol-3-yl]carbonyl}pyrimidin-4-yl)amino]cyclopentyl}methyl sulfamate]
  IC50: 10 to 100 nM
  inhibition at 0.111 µM: 81%

## NS(=O)(=O)OC[C@H]1C[C@@H](Nc2ncncc2C(=O)c2ccn(Cc3ccc(F)cc3)n2)C[C@@H]1O [Compound I-161, {(1R,2S,4R)-4-[(5-{[1-(4-fluorobenzyl)-1H-pyrazol-3-yl]carbonyl}pyrimidin-4-yl)amino]-2-hydroxycyclopentyl}methyl sulfamate]
  IC50: < 10 nM
  inhibition at 0.111 µM: 92%

## Cc1ccnc(Cn2ccc(C(=O)c3cncnc3N[C@@H]3C[C@H](COS(N)(=O)=O)[C@@H](O)C3)n2)c1 [Compound I-162, [(1R,2S,4R)-2-hydroxy-4-{[5-({1-[(4-methylpyridin-2-yl)methyl]-1H-pyrazol-3-yl}carbonyl)pyrimidin-4-yl]amino}cyclopentyl]methyl sulfamate]
  IC50: < 10 nM
  inhibition at 0.111 µM: 99%

## NS(=O)(=O)OC[C@H]1C[C@@H](Nc2ncncc2C(=O)c2ccn(Cc3ccc(C(F)(F)F)o3)n2)C[C@@H]1O [Compound I-163, [(1R,2S,4R)-2-hydroxy-4-({5-[(1-{[5-(trifluoromethyl)-2-furyl]methyl}-1H-pyrazol-3-yl)carbonyl]pyrimidin-4-yl}amino)cyclopentyl]methyl sulfamate]
  IC50: < 10 nM
  inhibition at 0.111 µM: 98%

## C#Cc1cccc(Cn2nc(C(=O)c3cncnc3N[C@@H]3C[C@H](COS(N)(=O)=O)[C@@H](O)C3)cc2C)c1 [Compound I-164, {(1R,2S,4R)-4-[(5-{[1-(3-ethynylbenzyl)-5-methyl-1H-pyrazol-3-yl]carbonyl}pyrimidin-4-yl)amino]-2-hydroxycyclopentyl}methyl sulfamate]
  IC50: < 10 nM
  inhibition at 0.111 µM: > 99%

## NS(=O)(=O)OC[C@H]1C[C@@H](Nc2ncncc2C(=O)c2ccn(Cc3cccc(F)c3)n2)C[C@@H]1O [Compound I-165, {(1R,2S,4R)-4-[(5-{[1-(3-fluorobenzyl)-1H-pyrazol-3-yl]carbony1}pyrimidin-4-yl)amino]-2-hydroxycyclopentyl}methyl sulfamate]
  IC50: < 10 nM
  inhibition at 0.111 µM: 98%

## C#Cc1cc(Cn2ccc(C(=O)c3cncnc3N[C@@H]3C[C@H](COS(N)(=O)=O)[C@@H](O)C3)n2)ccc1F [Compound I-166, {(1R,2S,4R)-4-[(5-{[1-(3-ethynyl-4-fluorobenzyl)-1H-pyrazol-3-yl]carbonyl}pyrimidin-4-yl)amino]-2-hydroxycyclopentyl}methyl sulfamate]
  IC50: < 10 nM
  inhibition at 0.111 µM: 98%

## NS(=O)(=O)OC[C@H]1C[C@@H](Nc2ncncc2C(=O)c2ccn(Cc3ccc(C(F)(F)F)cc3)n2)[C@H](O)[C@@H]1O [Compound I-167, [(1R,2R,3S,4R)-2,3-dihydroxy-4-{[5-({1-[4-(trifluoromethyl)benzyl]-1H-pyrazol-3-yl}carbonyl)pyrimidin-4-yl]amino}cyclopentyl]methyl sulfamate]
  IC50: < 10 nM
  inhibition at 0.111 µM: 98%

## NS(=O)(=O)OC[C@H]1C[C@@H](Nc2ncncc2C(=O)c2ccn(Cc3cc(C(F)(F)F)cc(C(F)(F)F)c3)c2)C[C@@H]1O [Compound I-168, [(1R,2S,4R)-4-{[5-({1-[3,5-Bis(trifluoromethyl)benzyl]-1H-pyrrol-3-yl}carbonyl)pyrimidin-4-yl]amino}-2-hydroxycyclopentyl]methylsulfamate]
  IC50: < 10 nM
  inhibition at 0.111 µM: 94%

## Cc1cc(Cn2ccc(C(=O)c3cncnc3N[C@@H]3C[C@H](COS(N)(=O)=O)[C@@H](O)[C@H]3O)n2)no1 [Compound I-169, [(1R,2R,3S,4R)-2,3-dihydroxy-4-{[5-({1-[(5-methylisoxazol-3-yl)methyl]-1H-pyrazol-3-yl}carbonyl)pyrimidin-4-yl]amino}cyclopentyl]methyl sulfamate]
  IC50: < 10 nM
  inhibition at 0.111 µM: 97%

## NS(=O)(=O)OC[C@H]1C[C@@H](Nc2ncncc2C(=O)c2cc(C(F)(F)F)n(Cc3cccc(Cl)c3)n2)C[C@@H]1O [Compound I-170, {(1R,2S,4R)-4-[(5-{[1-(3-Chlorobenzyl)-5-(trifluoromethyl)-1H-pyrazol-3-yl]carbonyl}pyrimidin-4-yl)amino]-2-hydroxycyclopentyl}methyl sulfamate]
  IC50: < 10 nM
  inhibition at 0.111 µM: 97%

## NS(=O)(=O)OC[C@H]1C[C@@H](Nc2ncncc2C(=O)c2ccn(Cc3ccc(C(F)(F)F)cc3)n2)C[C@@H]1O [Compound I-171, [(1R,2S,4R)-2-hydroxy-4-{[5-({1-[4-(trifluoromethyl)benzyl]-1H-pyrazol-3-yl}carbonyl)pyrimidin-4-yl]amino}cyclopentyl]methyl sulfamate]
  IC50: < 10 nM
  inhibition at 0.111 µM: 95%

## CC(C)Cn1ccc(C(=O)c2cncnc2N[C@@H]2C[C@H](COS(N)(=O)=O)[C@@H](O)[C@H]2O)n1 [Compound I-173, [(1R,2R,3S,4R)-2,3-dihydroxy-4-({5-[(1-isobutyl-1H-pyrazol-3-yl)carbonyl]pyrimidin-4-yl}amino)cyclopentyl]methyl sulfamate]
  IC50: 10 to 100 nM
  inhibition at 0.111 µM: 71%

## NS(=O)(=O)OC[C@H]1C[C@@H](Nc2ccncc2C(=O)c2ccn(Cc3ccc(Cl)c(C(F)(F)F)c3)n2)C[C@@H]1O [Compound I-174, [(1R,2S,4R)-4-{[3-({1-[4-chloro-3-(trifluoromethyl)benzyl]-1H-pyrazol-3-yl}carbonyl)pyridin-4-yl]amino}-2-hydroxycyclopentyl]methyl sulfamate]
  IC50: < 10 nM
  inhibition at 0.111 µM: 93%

## NS(=O)(=O)OC[C@H]1C[C@@H](Nc2ncncc2C(=O)c2ccn(Cc3cccc(Cl)c3)n2)[C@@H](F)[C@@H]1O [Compound I-176, {(1R,2R,3R,4R)-4-[(5-{[1-(3-chlorobenzyl)-1H-pyrazol-3-yl]carbonyl}pyrimidin-4-yl)amino]-3-fluoro-2-hydroxycyclopentyl}methyl sulfamate]
  IC50: < 10 nM
  inhibition at 0.111 µM: 98%

## NS(=O)(=O)OC[C@H]1C[C@@H](Nc2ncncc2C(=O)c2ccn(Cc3cccc(Br)c3F)n2)[C@@H](F)[C@@H]1O [Compound I-177, ((1R,2R,3R,4R)-4-((5-(1-(3-Bromo-2-fluorobenzyl)-1H-pyrazole-3 carbonyl)pyrimidin-4-yl)amino)-3-fluoro-2-hydroxycyclopentyl)methyl sulfamate]
  IC50: < 10 nM
  inhibition at 0.111 µM: 99%

## NS(=O)(=O)OC[C@H]1C[C@@H](Nc2ncncc2C(=O)c2ccn(Cc3ccc(F)c(I)c3)n2)[C@@H](F)[C@@H]1O [Compound I-178, {(1R,2R,3R,4R)-3-fluoro-4-[(5-{[1-(4-fluoro-3-iodobenzyl)-1H-pyrazol-3-yl]carbonyl}pyrimidin-4-yl)amino]-2-hydroxycyclopentyl}methyl sulfamate]
  IC50: < 10 nM
  inhibition at 0.111 µM: 99%

## NS(=O)(=O)OC[C@H]1C[C@@H](Nc2ncncc2C(=O)c2ccn(Cc3ccc(Cl)c(Br)c3)n2)C[C@@H]1O [Compound I-179, {(1R,2S,4R)-4-[(5-{[1-(3-bromo-4-chlorobenzyl)-1H-pyrazol-3-yl]carbonyl}pyrimidin-4-yl)amino]-2-hydroxycyclopentyl}methyl sulfamate]
  IC50: < 10 nM
  inhibition at 0.111 µM: > 99%
